Patent US9468212B2, “Antifungal compositions” (DSM IP ASSETS B.V., priority 2013, dated 2016)
Several values for one entry are separate records, joined by “and”; a condition that tells them apart may be missing. Identical values can stand only once.

How the values were obtained:
[1] = test system: Botrytis cinerea; experiment: Treatment of strawberries: wounded, inoculated with Botrytis cinerea, dipped in antifungal composition (Examples 5, 6); type: in vivo; conditions: 20° C.
Protocol: Twelve fresh, organic strawberries were used per treatment. Each strawberry was wounded with a 0.5 mm long cut and each wound was inoculated with 10 μl of a Botrytis cinerea suspension containing 1×10^5 of spores/ml. After a 3-hour incubation period at 20° C., each strawberry was dipped individually for 1 minute in a freshly prepared aqueous antifungal composition comprising either 500 ppm natamycin (DSM Food Specialties, Delft, The Netherlands), 500 ppm fludioxonil or both. Each antifungal composition also comprised 3.2% (w/w) beeswax, 0.8% (w/w) glycerol, 0.7% (w/w) polyoxyethylene sorbitan monostearate (Tween 60), 0.1% (w/w) polyoxyethylene sorbitan monooleate (Tween 80), 0.05% (w/w) methylhydroxyethyl-cellulose (MH EC), 0.03% (w/w) anti-foaming agent, 0.02% (w/w) xanthan gum, 0.02% (w/w) citric acid, 0.01% (w/w) lactic acid and 0.01% potassium sorbate. A composition without natamycin or fludioxonil was used as control. […] The treated strawberries were incubated in a closed box in the dark at 20° C. for 19 days.
The expected antifungal activity (E in %) of the combined antifungal composition comprising both active ingredients was calculated according to the Colby equation (Colby, 1967): E=X+Y−[(X·Y)/100] wherein X and Y are the observed antifungal activities (in %) of the individual active ingredients X and Y, respectively.
The experiment was conducted as described in Example 5, except for the fact that each wounded and inoculated strawberry was dipped individually for 1 minute in a freshly prepared aqueous antifungal composition comprising either 250 ppm natamycin (DSM Food Specialties, Delft, The Netherlands), 250 ppm fludioxonil or both. During incubation, the treated strawberries were assessed on mould growth according to the two methods described in Example 5.

[2] = test system: Botrytis cinerea; experiment: Treatment of sweet peppers: wounded, inoculated with Botrytis cinerea, wound treated with antifungal composition (Example 10); type: in vivo; conditions: 400 ppm natamycin, 600 ppm fenpiclonil or both, 20° C.
Protocol: Ten fresh, organic sweet peppers were used per treatment. The peel of each sweet pepper was wounded once using a cork borer according to the method described by de Lapeyre de Bellaire and Dubois (1987). Subsequently, each wound was inoculated with 10 μl of a Botrytis cinerea suspension containing 1×10^5 of spores/ml. After incubation for 3 hours at 20° C., each wound and the skin area of 0.5 cm around the wound was treated with in total 75 μl of a freshly prepared aqueous antifungal composition comprising either 400 ppm natamycin (DSM Food Specialties, Delft, The Netherlands), 600 ppm fenpiclonil or both. Each antifungal composition also comprised 3.2% (w/w) beeswax, 0.8% (w/w) glycerol, 0.7% (w/w) polyoxyethylene sorbitan monostearate (Tween 60), 0.2% (w/w) polyoxyethylene sorbitan monooleate (Tween 80), 0.05% (w/w) methylhydroxyethyl-cellulose (MHEC), 0.03% (w/w) anti-foaming agent, 0.02% (w/w) xanthan gum, 0.02% (w/w) citric acid, 0.01% (w/w) lactic acid and 0.01% potassium sorbate. A composition without natamycin or fenpiclonil was used as control.
The treated sweet peppers were incubated in a closed box in the dark at 20° C. and assessed on mould growth during incubation. The antifungal activity (in %) of the individual and combined active ingredients was determined by calculating the reduction in mould growth observed on the sweet peppers treated with the antifungal composition in comparison to the mould growth on the sweet peppers treated with the control composition according to the Colby method (Colby, 1967) as described in Example 5.

[3] = 250 ppm natamycin, 250 ppm fludioxonil or both, 6 days
[4] = 250 ppm natamycin, 250 ppm fludioxonil or both, 7 days
[5] = 250 ppm natamycin, 250 ppm fludioxonil or both, 8 days
[6] = 250 ppm natamycin, 250 ppm fludioxonil or both, 9 days
[7] = 250 ppm natamycin, 250 ppm fludioxonil or both, 10 days
[8] = 250 ppm natamycin, 250 ppm fludioxonil or both, 11 days
[9] = 250 ppm natamycin, 250 ppm fludioxonil or both, 12 days
[10] = 250 ppm natamycin, 250 ppm fludioxonil or both, 13 days
[11] = 250 ppm natamycin, 250 ppm fludioxonil or both, 14 days
[12] = 250 ppm natamycin, 250 ppm fludioxonil or both, 15 days
[13] = 250 ppm natamycin, 250 ppm fludioxonil or both, 16 days
[14] = 250 ppm natamycin, 250 ppm fludioxonil or both, 18 days
[15] = 250 ppm natamycin, 250 ppm fludioxonil or both, 19 days
[16] = 250 ppm natamycin, 250 ppm fludioxonil or both, Day 6-8
[17] = 250 ppm natamycin, 250 ppm fludioxonil or both, Day 9
[18] = 250 ppm natamycin, 250 ppm fludioxonil or both, Day 10
[19] = 250 ppm natamycin, 250 ppm fludioxonil or both, Day 11
[20] = 250 ppm natamycin, 250 ppm fludioxonil or both, Day 12
[21] = 250 ppm natamycin, 250 ppm fludioxonil or both, Day 13
[22] = 250 ppm natamycin, 250 ppm fludioxonil or both, Day 14
[23] = 250 ppm natamycin, 250 ppm fludioxonil or both, Day 15
[24] = 500 ppm natamycin, 500 ppm fludioxonil or both, 7 days
[25] = 500 ppm natamycin, 500 ppm fludioxonil or both, 8 days
[26] = 500 ppm natamycin, 500 ppm fludioxonil or both, 9 days
[27] = 500 ppm natamycin, 500 ppm fludioxonil or both, 10 days
[28] = 500 ppm natamycin, 500 ppm fludioxonil or both, 11 days
[29] = 500 ppm natamycin, 500 ppm fludioxonil or both, 12 days
[30] = 500 ppm natamycin, 500 ppm fludioxonil or both, 13 days
[31] = 500 ppm natamycin, 500 ppm fludioxonil or both, 14 days
[32] = 500 ppm natamycin, 500 ppm fludioxonil or both, 15 days
[33] = 500 ppm natamycin, 500 ppm fludioxonil or both, 16 days
[34] = 500 ppm natamycin, 500 ppm fludioxonil or both, 18 days
[35] = 500 ppm natamycin, 500 ppm fludioxonil or both, 19 days
[36] = 500 ppm natamycin, 500 ppm fludioxonil or both, Day 7
[37] = 500 ppm natamycin, 500 ppm fludioxonil or both, Day 8
[38] = 500 ppm natamycin, 500 ppm fludioxonil or both, Day 9
[39] = 500 ppm natamycin, 500 ppm fludioxonil or both, Day 10-11
[40] = 500 ppm natamycin, 500 ppm fludioxonil or both, Day 12
[41] = 500 ppm natamycin, 500 ppm fludioxonil or both, Day 13
[42] = 500 ppm natamycin, 500 ppm fludioxonil or both, Day 14
[43] = 500 ppm natamycin, 500 ppm fludioxonil or both, Day 15
[44] = 500 ppm natamycin, 500 ppm fludioxonil or both, Day 16-17

For `N#Cc1c[nH]cc1-c1cccc2c1OC(F)(F)O2` [Fludioxonil, fludioxonil], the “Observed antifungal activity O (%)” value [1, 3] was 89%, the “Observed antifungal activity O (%)” value [1, 4] was 81% and the “Observed antifungal activity O (%)” value [1, 5] was 81%. The “Observed antifungal activity O (%)” value [1, 6] was 69%, the “Observed antifungal activity O (%)” value [1, 7] was 55% and the “Observed antifungal activity O (%)” value [1, 8] was 44%. The “Observed antifungal activity O (%)” value [1, 9] was 32%, the “Observed antifungal activity O (%)” value [1, 10] was 26% and the “Observed antifungal activity O (%)” value [1, 11] was 19%. The “Observed antifungal activity O (%)” value [1, 12] was 11%, the “Observed antifungal activity O (%)” value [1, 13] was 6.0% and the “Observed antifungal activity O (%)” value [1, 14] was 1.2%. For the same compound, the “Observed antifungal activity O (%)” value [1, 15] was 0%, the “Number of moulded strawberries/total number of 12 strawberries” value [1, 16] was 5 and 5/12 and the “Number of moulded strawberries/total number of 12 strawberries” value [1, 17] was 8 and 8/12. For the same compound, the “Number of moulded strawberries/total number of 12 strawberries” value [1, 18] was 9 and 9/12, the “Number of moulded strawberries/total number of 12 strawberries” value [1, 19] was 10 and 10/12 and the “Number of moulded strawberries/total number of 12 strawberries” value [1, 20] was 12 and 12/12. For the same compound, the “Number of moulded strawberries/total number of 12 strawberries” value [1, 21] was 12 and 12/12, the “Number of moulded strawberries/total number of 12 strawberries” value [1, 22] was 12 and 12/12 and the “Number of moulded strawberries/total number of 12 strawberries” value [1, 23] was 12 and 12/12. The “Observed antifungal activity O (%)” value [1, 24] was 90%, the “Observed antifungal activity O (%)” value [1, 25] was 80% and the “Observed antifungal activity O (%)” value [1, 26] was 67%. For the same compound, the “Observed antifungal activity O (%)” value [1, 27] was 56%, the “Observed antifungal activity O (%)” value [1, 28] was 52% and the “Observed antifungal activity O (%)” value [1, 29] was 44%. The “Observed antifungal activity O (%)” value [1, 30] was 33%, the “Observed antifungal activity O (%)” value [1, 31] was 24% and the “Observed antifungal activity O (%)” value [1, 32] was 17%. For the same compound, the “Observed antifungal activity O (%)” value [1, 33] was 13%, the “Observed antifungal activity O (%)” value [1, 34] was 4.8% and the “Observed antifungal activity O (%)” value [1, 35] was 3.6%. The “Number of moulded strawberries/total number of 12 strawberries” value [1, 36] was 3 and 3/12, the “Number of moulded strawberries/total number of 12 strawberries” value [1, 37] was 5 and 5/12 and the “Number of moulded strawberries/total number of 12 strawberries” value [1, 38] was 8 and 8/12. The “Number of moulded strawberries/total number of 12 strawberries” value [1, 39] was 9 and 9/12, the “Number of moulded strawberries/total number of 12 strawberries” value [1, 40] was 9 and 9/12 and the “Number of moulded strawberries/total number of 12 strawberries” value [1, 41] was 11 and 11/12. For the same compound, the “Number of moulded strawberries/total number of 12 strawberries” value [1, 42] was 12 and 12/12, the “Number of moulded strawberries/total number of 12 strawberries” value [1, 43] was 12 and 12/12 and the “Number of moulded strawberries/total number of 12 strawberries” value [1, 44] was 12 and 12/12.

In the case of `C[C@@H]1C/C=C/C=C/C=C/C=C/[C@H](O[C@@H]2O[C@H](C)[C@@H](O)[C@H](N)[C@@H]2O)C[C@@H]2O[C@](O)(C[C@@H](O)C[C@H]3O[C@@H]3/C=C/C(=O)O1)C[C@H](O)[C@H]2C(=O)O` [Natamycin, natamycin], the “Observed antifungal activity O (%)” value ([2]; 47 days) is reported as 15%, the “Observed antifungal activity O (%)” value ([2]; 48 days) is reported as 6% and the “Observed antifungal activity O (%)” value ([2]; 49 days) is reported as 4%. For the same compound, the “Observed antifungal activity O (%)” value ([2]; 50 days) was 3%, the “Observed antifungal activity O (%)” value [1, 3] was 23% and the “Observed antifungal activity O (%)” value [1, 4] was 23%. The “Observed antifungal activity O (%)” value [1, 5] was 18%, the “Observed antifungal activity O (%)” value [1, 6] was 13% and the “Observed antifungal activity O (%)” value [1, 7] was 4.8%. For the same compound, the “Observed antifungal activity O (%)” value [1, 8] was 4.8%, the “Observed antifungal activity O (%)” value [1, 9] was 1.2% and the “Observed antifungal activity O (%)” value [1, 10] was 1.2%. For the same compound, the “Observed antifungal activity O (%)” value [1, 11] was 1.2%, the “Observed antifungal activity O (%)” value [1, 12] was 0% and the “Observed antifungal activity O (%)” value [1, 13] was 0%. The “Observed antifungal activity O (%)” value [1, 14] was 0%, the “Observed antifungal activity O (%)” value [1, 15] was 0% and the “Number of moulded strawberries/total number of 12 strawberries” value [1, 16] was 11 and 11/12. For the same compound, the “Number of moulded strawberries/total number of 12 strawberries” value [1, 17] was 11 and 11/12, the “Number of moulded strawberries/total number of 12 strawberries” value [1, 18] was 12 and 12/12 and the “Number of moulded strawberries/total number of 12 strawberries” value [1, 19] was 12 and 12/12. The “Number of moulded strawberries/total number of 12 strawberries” value [1, 20] was 12 and 12/12, the “Number of moulded strawberries/total number of 12 strawberries” value [1, 21] was 12 and 12/12 and the “Number of moulded strawberries/total number of 12 strawberries” value [1, 22] was 12 and 12/12. The “Number of moulded strawberries/total number of 12 strawberries” value [1, 23] was 12 and 12/12, the “Observed antifungal activity O (%)” value [1, 24] was 11% and the “Observed antifungal activity O (%)” value [1, 25] was 14%. For the same compound, the “Observed antifungal activity O (%)” value [1, 26] was 4.8%, the “Observed antifungal activity O (%)” value [1, 27] was 2.4% and the “Observed antifungal activity O (%)” value [1, 28] was 2.4%. The “Observed antifungal activity O (%)” value [1, 29] was 0%, the “Observed antifungal activity O (%)” value [1, 30] was 0% and the “Observed antifungal activity O (%)” value [1, 31] was 0%. For the same compound, the “Observed antifungal activity O (%)” value [1, 32] was 0%, the “Observed antifungal activity O (%)” value [1, 33] was 0% and the “Observed antifungal activity O (%)” value [1, 34] was 0%. For the same compound, the “Observed antifungal activity O (%)” value [1, 35] was 0%, the “Number of moulded strawberries/total number of 12 strawberries” value [1, 36] was 12 and 12/12 and the “Number of moulded strawberries/total number of 12 strawberries” value [1, 37] was 12 and 12/12. For the same compound, the “Number of moulded strawberries/total number of 12 strawberries” value [1, 38] was 12 and 12/12, the “Number of moulded strawberries/total number of 12 strawberries” value [1, 39] was 12 and 12/12 and the “Number of moulded strawberries/total number of 12 strawberries” value [1, 40] was 12 and 12/12. The “Number of moulded strawberries/total number of 12 strawberries” value [1, 41] was 12 and 12/12, the “Number of moulded strawberries/total number of 12 strawberries” value [1, 42] was 12 and 12/12 and the “Number of moulded strawberries/total number of 12 strawberries” value [1, 43] was 12 and 12/12. The “Number of moulded strawberries/total number of 12 strawberries” value [1, 44] was 12 and 12/12.
